Assay results published in paper PMC8453114 (Journal of molecular biology, 2021).

target: T1, HTLV-1 myr(−)MA (Human T-cell leukemia virus type I, UniProt Q9QR99); assay: 1H-15N HSQC NMR titration; format: binding

| SMILES | Kd |
| --- | --- |
| O=P(O)(O)O[C@@H]1[C@H](O)[C@H](O)[C@@H](OP(=O)(O)O)[C@H](OP(=O)(O)O)[C@H]1O [IP3, inositol 1,4,5-trisphosphate] | 338 ± 42 µM |
| O=P(O)(O)O[C@H]1[C@H](OP(=O)(O)O)[C@@H](OP(=O)(O)O)[C@H](OP(=O)(O)O)[C@@H](OP(=O)(O)O)[C@H]1OP(=O)(O)O [IP6, inositol hexakisphosphate] | 23 ± 11 µM |
| CCCC(=O)OC[C@H](COP(=O)(O)O[C@@H]1[C@H](O)[C@H](O)[C@@H](OP(=O)(O)O)[C@H](OP(=O)(O)O)[C@H]1O)OC(=O)CCC [diC4-PI(4,5)P2] | 306 ± 30 µM |
| CCCCCC(=O)OC[C@H](COP(=O)(O)O[C@@H]1[C@H](O)[C@H](O)[C@@H](OP(=O)(O)O)[C@H](OP(=O)(O)O)[C@H]1O)OC(=O)CCCCC [diC6-PI(4,5)P2] | 195 ± 19 µM |

target: T1, HTLV-1 myr(−)MA; assay: 1H NMR liposome; format: binding

| SMILES | Kd |
| --- | --- |
| CCCCCCCC/C=C\CCCCCCCC(=O)O[C@H](COC(=O)CCCCCCCCCCCCCCC)COP(=O)(O)OC[C@H](N)C(=O)O [POPS, 1-palmitoyl-2-oleoyl-sn-glycero-3-phospho-L-serine] | 118 ± 16 µM |
| CCCCCCCCCCCCCCCC(=O)OC[C@H](COP(=O)(O)O[C@@H]1[C@H](O)[C@H](OP(=O)(O)O)[C@@H](O)[C@H](OP(=O)(O)O)[C@H]1O)OC(=O)CCCCCCCCCCCCCCC [diC16-PI(3,5)P2, dipalmitoyl-phosphatidylinositol 3,5-bisphosphate] | 32 ± 2 µM |
